Assay results published in ChEMBL document CHEMBL4376816, “Discovery of the Oral Leukotriene C4 Synthase Inhibitor (1S,2S)-2-({5-[(5-Chloro-2,4-difluorophenyl)(2-fluoro-2-methylpropyl)amino]-3-methoxypyrazin-2-yl}carbonyl)cyclopropanecarboxylic Acid (AZD9898) as a New Treatment for Asthma” (J Med Chem, 2019).
In brackets after ≈: the same amount, converted by molar mass. Activity calls are given as the source filed them. The calls are words filed in the database; no cut-off is given here.

What was measured:
Blood [1] = experiment: Effect on arachidonic acid pathway in calcium ionophore A23187-stimulated asthmatic human whole blood assessed as increase in lipoxin level preincubated for 30 mins followed by calcium ionophore A23187 stimulation and measured after 60 mins by LC-MS analysis; type: functional, tissue-based
[2] = target: T1, A-type voltage-gated potassium channel KCND3 (Homo sapiens, UniProt Q9UK17); experiment: Inhibition of human Kv4.3 expressed in CHOK1 cells at < 33 uM at -80 mV holding potential by Ionwork-based analysis; type: cell-based
T1 sequence (Q9UK17 whole entry): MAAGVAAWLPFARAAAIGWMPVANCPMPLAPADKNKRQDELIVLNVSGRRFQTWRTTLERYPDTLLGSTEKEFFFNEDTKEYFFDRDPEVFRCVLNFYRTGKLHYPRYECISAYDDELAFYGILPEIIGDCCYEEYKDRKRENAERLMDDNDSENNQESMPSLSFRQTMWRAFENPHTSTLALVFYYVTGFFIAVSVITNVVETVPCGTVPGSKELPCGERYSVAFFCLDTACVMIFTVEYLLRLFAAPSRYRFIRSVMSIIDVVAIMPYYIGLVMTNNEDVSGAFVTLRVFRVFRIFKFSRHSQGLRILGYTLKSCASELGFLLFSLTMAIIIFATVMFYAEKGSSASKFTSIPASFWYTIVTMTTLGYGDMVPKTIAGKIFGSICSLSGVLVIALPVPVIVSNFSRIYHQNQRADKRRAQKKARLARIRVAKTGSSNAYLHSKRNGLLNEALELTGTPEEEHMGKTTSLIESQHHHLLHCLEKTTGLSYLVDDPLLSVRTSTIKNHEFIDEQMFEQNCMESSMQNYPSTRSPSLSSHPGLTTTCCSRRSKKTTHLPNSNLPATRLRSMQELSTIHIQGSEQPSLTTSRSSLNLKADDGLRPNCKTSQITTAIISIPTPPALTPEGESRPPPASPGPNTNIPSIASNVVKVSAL

[3] = target: T2, A-type potassium channel modulatory protein KCNIP2 (Homo sapiens) (UniProt Q9NS61); experiment: Inhibition of human KvChIP2 expressed in CHOK1 cells at < 33 uM at -90 mV holding potential by Ionwork-based analysis; type: cell-based
T2 sequence (whole entry): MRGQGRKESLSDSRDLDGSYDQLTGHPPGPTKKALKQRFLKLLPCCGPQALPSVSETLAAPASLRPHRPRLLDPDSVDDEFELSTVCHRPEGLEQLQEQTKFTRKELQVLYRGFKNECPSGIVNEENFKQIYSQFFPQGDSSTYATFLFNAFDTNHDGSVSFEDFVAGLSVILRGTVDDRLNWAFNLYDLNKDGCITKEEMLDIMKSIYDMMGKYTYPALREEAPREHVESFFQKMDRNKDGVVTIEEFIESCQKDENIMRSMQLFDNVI

[4] = Fraction unbound in human plasma by equilibrium dialysis based LC-MS analysis; type: ADME, cell-free
[5] = target: Voltage-dependent L-type calcium channel subunit alpha-1C (Homo sapiens, UniProt Q13936); experiment: Inhibition of human Cav1.2 expressed in CHOK1 cells at < 33 uM at -65 mV holding potential by Ionwork-based analysis; type: cell-based
[6] = Fraction unbound in Beagle dog plasma by equilibrium dialysis based LC-MS analysis; type: ADME, cell-free, Canis lupus familiaris
[7] = Cmax in po dosed rat at NOAEL measured after 7 days; type: ADME, organism-based; design: route oral; settings: in vivo
[8] = Displacement of [3H]-GABA/[3]-muscimol from GABA gated chloride channel in Sprague-Dawley rat cortical synoptic membranes by liquid scintillation analysis
[9] = AUC in po dosed rat at NOAEL measured after 7 days; type: ADME, organism-based; settings: in vivo
[10] = Effective half life in Han Wistar rat at 0.5 mg/kg, iv or 1 mg/kg, po after 24 hrs; type: ADME, organism-based; settings: in vivo, read-out: t1/2eff (converted)
[11] = Thermodynamic solubility of compound in pH 7.4 PBS at 1 mg/ml incubated for 24 hrs under shaking condition by LC-MS/MS analysis; type: physicochemical; settings: read-out: Therm_solubility
[12] = Toxicity in rat assessed as liver hypertrophy at 100 mg/kg, po after 7 days; type: organism-based; settings: in vivo
[13] = Apparent permeability across apical to basolateral side in human Caco2 cells; settings: Caco-2
[14] = Effective half life in cynomolgus monkey at 1 mg/kg, iv or 2 mg/kg, po after 48 hrs; type: ADME, organism-based, Macaca fascicularis; settings: in vivo, read-out: t1/2eff (converted)
Rattus norvegicus = experiment: In vivo inhibition of LTC4S in po dosed Sprague-Dawley rat assessed as unbound drug concentration required for inhibition of calcium ionophore A23187-induced cysteinyl leukotrienes production in BAL fluid by LC-MS/MS analysis; type: functional
[15] = Octanol/Sodium phosphate buffer partition coefficient, log D of compound at pH 7.4 at 1 mg incubated for overnight under shaking condition by LC-MS/MS analysis; type: physicochemical
[16] = Intrinsic clearance in human hepatocytes at 1 uM assessed as per million cells after 2 to 60 mins by LC-MS/MS analysis; type: ADME, cell-based, Hepatocyte; settings: read-out: CLH
[17] = Oral bioavailability in Beagle dog at 2 mg/kg via gavage after 48 hrs; type: ADME, organism-based, Canis lupus familiaris; settings: in vivo
[18] = Genotoxicity in Salmonella typhimurium by Ames test; type: toxicity; settings: salmonella enterica subsp. enterica serovar typhimurium
Blood [19] = experiment: Effect on arachidonic acid pathway in calcium ionophore A23187-stimulated healthy human whole blood assessed as increase in lipoxin level preincubated for 30 mins followed by calcium ionophore A23187 stimulation and measured after 60 mins by LC-MS analysis; type: functional, tissue-based
[20] = Volume of distribution at steady state in cynomolgus monkey at 1 mg/kg, iv or 2 mg/kg, po after 48 hrs; type: ADME, organism-based, Macaca fascicularis; settings: in vivo, read-out: Vdss
[21] = Oral bioavailability in cynomolgus monkey at 2 mg/kg after 48 hrs; type: ADME, organism-based, Macaca fascicularis; settings: in vivo
[22] = Volume of distribution at steady state in Han Wistar rat at 0.5 mg/kg, iv or 1 mg/kg, po after 24 hrs; type: ADME, organism-based; settings: in vivo, read-out: Vdss
[23] = target: Sodium channel protein type 5 subunit alpha (Homo sapiens, UniProt Q14524); experiment: Inhibition of human Nav1.5 expressed in CHOK1 cells at < 33 uM at -90 mV holding potential by Ionwork-based analysis; type: cell-based
[24] = Clearance in cynomolgus monkey at 1 mg/kg, iv or 2 mg/kg, po after 48 hrs; type: ADME, organism-based, Macaca fascicularis; settings: in vivo
Cytochrome P450 2C9 = Cytochrome P450 2C9 (Homo sapiens, UniProt P11712); experiment: Inhibition of recombinant human CYP2C9 expressed in Escherichia coli using coumarin based substrate by fluorescence assay; type: ADME
[25] = Clearance in Han Wistar rat at 0.5 mg/kg, iv or 1 mg/kg, po after 24 hrs; type: ADME, organism-based; settings: in vivo
[26] = target: Potassium voltage-gated channel subfamily E member 1 (Homo sapiens, UniProt P15382); experiment: Inhibition of human minK expressed in CHOK1 cells at < 33 uM at -80 mV holding potential by Ionwork-based analysis; type: cell-based

Sequence of Sodium channel protein type 5 subunit alpha (Q14524 whole entry): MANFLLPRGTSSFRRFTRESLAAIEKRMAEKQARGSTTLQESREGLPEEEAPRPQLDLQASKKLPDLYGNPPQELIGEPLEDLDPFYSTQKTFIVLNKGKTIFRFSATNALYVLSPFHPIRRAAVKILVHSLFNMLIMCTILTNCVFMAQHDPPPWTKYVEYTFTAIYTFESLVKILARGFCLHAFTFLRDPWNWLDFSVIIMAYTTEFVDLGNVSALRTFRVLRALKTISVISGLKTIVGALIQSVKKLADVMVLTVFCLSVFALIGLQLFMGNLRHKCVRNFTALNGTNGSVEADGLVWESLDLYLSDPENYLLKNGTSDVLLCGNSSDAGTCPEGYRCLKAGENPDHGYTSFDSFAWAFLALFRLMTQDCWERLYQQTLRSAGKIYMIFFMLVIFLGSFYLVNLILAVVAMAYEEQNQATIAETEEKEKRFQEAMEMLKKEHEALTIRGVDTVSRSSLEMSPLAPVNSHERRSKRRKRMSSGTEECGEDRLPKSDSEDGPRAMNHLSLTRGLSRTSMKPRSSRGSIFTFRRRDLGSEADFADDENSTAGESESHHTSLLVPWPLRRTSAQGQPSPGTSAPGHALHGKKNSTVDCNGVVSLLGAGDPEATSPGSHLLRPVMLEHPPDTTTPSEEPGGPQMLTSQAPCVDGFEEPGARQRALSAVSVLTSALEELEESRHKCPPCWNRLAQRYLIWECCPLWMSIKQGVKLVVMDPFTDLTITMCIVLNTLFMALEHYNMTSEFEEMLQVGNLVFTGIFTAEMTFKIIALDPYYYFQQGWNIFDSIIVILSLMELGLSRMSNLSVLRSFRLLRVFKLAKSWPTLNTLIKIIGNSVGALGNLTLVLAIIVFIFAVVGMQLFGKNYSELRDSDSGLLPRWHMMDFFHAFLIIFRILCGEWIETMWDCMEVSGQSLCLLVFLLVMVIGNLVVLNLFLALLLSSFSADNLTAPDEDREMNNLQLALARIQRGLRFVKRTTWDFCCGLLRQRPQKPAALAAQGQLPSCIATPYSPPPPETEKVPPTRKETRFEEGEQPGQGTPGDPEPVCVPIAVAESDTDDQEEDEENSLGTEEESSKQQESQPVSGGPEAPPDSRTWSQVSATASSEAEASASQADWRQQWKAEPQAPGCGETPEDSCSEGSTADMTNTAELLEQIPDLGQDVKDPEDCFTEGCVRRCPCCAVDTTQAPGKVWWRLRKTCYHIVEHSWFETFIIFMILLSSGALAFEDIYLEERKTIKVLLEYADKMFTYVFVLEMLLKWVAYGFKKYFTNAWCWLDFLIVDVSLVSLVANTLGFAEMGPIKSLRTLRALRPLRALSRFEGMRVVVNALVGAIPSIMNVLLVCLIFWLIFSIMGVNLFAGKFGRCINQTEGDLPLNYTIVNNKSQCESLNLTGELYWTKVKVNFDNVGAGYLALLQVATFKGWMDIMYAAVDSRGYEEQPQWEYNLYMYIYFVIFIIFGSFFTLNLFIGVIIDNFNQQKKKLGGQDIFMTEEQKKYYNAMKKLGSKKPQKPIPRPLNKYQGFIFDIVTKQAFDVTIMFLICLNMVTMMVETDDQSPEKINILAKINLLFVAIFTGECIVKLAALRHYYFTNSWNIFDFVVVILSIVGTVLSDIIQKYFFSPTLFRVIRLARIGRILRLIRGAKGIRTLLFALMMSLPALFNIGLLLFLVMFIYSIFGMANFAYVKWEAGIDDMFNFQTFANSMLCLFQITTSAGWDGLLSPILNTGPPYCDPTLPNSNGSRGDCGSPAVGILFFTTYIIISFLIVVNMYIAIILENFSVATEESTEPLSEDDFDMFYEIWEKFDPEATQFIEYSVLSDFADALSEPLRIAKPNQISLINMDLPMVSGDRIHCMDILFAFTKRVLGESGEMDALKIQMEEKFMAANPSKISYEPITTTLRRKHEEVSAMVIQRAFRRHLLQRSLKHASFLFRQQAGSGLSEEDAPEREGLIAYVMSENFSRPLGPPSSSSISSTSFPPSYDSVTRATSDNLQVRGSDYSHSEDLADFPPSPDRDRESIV
Sequence of Cytochrome P450 2C9 (P11712 whole entry): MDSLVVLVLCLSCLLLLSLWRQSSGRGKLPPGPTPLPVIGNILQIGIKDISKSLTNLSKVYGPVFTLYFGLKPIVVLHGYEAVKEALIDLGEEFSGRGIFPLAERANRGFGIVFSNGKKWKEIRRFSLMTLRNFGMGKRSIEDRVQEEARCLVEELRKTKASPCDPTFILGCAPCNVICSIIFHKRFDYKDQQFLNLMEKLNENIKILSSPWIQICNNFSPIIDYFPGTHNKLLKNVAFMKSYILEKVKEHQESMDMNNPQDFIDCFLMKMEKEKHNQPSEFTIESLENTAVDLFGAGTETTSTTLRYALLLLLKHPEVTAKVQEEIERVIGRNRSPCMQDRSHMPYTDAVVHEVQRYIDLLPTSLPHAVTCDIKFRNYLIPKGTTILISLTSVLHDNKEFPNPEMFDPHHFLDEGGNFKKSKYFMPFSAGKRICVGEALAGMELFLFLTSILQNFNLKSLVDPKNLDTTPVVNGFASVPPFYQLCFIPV
Sequence of Voltage-dependent L-type calcium channel subunit alpha-1C (Q13936 whole entry): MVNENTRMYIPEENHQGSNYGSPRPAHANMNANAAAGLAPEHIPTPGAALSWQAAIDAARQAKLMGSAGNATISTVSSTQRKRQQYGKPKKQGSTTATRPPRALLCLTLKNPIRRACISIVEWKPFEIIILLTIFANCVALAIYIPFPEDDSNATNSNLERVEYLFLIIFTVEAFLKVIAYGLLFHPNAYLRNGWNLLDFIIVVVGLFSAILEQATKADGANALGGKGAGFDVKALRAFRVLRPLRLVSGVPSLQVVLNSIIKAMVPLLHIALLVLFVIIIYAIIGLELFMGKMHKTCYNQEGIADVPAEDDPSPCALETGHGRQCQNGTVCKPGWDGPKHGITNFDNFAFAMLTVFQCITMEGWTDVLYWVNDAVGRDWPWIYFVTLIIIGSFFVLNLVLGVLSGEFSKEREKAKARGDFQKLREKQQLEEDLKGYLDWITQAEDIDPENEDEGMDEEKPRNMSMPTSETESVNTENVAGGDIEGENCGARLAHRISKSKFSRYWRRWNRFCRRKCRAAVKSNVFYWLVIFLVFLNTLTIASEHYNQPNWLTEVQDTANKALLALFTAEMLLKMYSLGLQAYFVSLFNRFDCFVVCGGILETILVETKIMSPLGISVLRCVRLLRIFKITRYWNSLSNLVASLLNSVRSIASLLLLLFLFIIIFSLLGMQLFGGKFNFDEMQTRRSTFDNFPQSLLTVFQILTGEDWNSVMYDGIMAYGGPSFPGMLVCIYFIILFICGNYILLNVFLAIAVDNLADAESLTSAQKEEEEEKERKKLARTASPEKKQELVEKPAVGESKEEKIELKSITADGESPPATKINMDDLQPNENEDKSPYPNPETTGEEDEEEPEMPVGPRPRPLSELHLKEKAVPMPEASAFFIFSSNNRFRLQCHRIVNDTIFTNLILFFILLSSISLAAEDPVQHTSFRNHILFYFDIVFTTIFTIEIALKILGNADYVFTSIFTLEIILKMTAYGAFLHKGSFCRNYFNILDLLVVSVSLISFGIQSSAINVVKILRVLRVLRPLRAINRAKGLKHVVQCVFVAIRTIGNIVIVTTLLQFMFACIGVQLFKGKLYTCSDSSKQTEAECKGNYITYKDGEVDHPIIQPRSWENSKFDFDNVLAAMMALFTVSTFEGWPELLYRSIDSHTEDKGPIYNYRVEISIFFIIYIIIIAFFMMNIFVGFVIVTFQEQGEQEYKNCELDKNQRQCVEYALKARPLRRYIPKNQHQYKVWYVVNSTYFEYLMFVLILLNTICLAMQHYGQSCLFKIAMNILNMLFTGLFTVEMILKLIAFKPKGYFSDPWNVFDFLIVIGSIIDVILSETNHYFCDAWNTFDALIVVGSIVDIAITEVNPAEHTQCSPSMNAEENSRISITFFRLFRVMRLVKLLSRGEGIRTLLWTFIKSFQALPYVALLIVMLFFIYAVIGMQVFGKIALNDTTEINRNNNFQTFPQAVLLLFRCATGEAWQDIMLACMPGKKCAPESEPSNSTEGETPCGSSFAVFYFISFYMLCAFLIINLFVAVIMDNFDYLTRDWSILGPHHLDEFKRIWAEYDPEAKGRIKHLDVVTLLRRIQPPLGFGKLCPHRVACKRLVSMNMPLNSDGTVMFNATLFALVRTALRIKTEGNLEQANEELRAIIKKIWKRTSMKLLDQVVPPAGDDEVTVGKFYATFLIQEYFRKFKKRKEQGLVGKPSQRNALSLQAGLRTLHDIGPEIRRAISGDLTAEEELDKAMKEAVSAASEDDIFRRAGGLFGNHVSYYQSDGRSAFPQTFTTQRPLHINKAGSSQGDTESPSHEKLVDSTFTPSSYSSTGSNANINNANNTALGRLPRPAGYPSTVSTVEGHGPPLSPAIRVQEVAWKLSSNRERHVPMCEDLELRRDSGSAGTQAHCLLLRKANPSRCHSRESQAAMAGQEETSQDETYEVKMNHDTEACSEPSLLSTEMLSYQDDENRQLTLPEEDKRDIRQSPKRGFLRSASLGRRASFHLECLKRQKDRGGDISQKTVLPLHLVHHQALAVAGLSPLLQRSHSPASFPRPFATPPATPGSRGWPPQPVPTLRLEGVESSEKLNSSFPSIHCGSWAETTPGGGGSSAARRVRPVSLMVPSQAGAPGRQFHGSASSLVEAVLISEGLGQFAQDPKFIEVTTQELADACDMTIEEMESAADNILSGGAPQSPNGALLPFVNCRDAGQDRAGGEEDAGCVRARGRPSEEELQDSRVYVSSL

inhibition (INH) [2]: Not Active
inhibition [3]: inactive
fraction unbound [4]: 0.036
fraction unbound [6]: 0.059
IC50 [8]: > 100 µM
half-life [10]: 1560 min
solubility thermodynamic at 24 h [11]: 2080 µM (≈ 952 µg/mL)
Papp A→B [13]: 61 ×10⁻⁶ cm/s
half-life [14]: 720 min
logD [15]: 1.1
hepatocyte CLint at 1 µM [16]: < 1.2 µL/min/1e6 cells
bioavailability [17]: 100%
Vd [20]: 0.6 L/kg
bioavailability [21]: 90%
Vd [22]: 5.3 L/kg
clearance [24]: 0.6 mL/min/kg
IC50 (Cytochrome P450 2C9): > 30 µM
clearance [25]: 2.3 mL/min/kg
inhibition (INH) [26]: Not Active
Compound: COc1nc(N(CC(C)(C)F)c2cc(Cl)c(F)cc2F)cnc1C(=O)[C@H]1C[C@@H]1C(=O)O [AZD-9898]
Activity (Blood [1]): Dose-dependent effect
inhibition (INH) [5]: Not Active
Cmax at […] [7]: 349 µM
AUC [9]: 4500 µM·h
Activity [12]: Non-Toxic
fEC50 (Rattus norvegicus): 34 nM
Activity [18]: Non-Toxic
Activity (Blood [19]): Dose-dependent effect
inhibition (INH) [23]: Not Active
